From patent publication US20240148747A1, “SMALL MOLECULE ACTIVATORS OF YAP TRANSCRIPTIONAL ACTIVITY FOR REGENERATIVE ORGAN REPAIR” (THE SCRIPPS RESEARCH INSTITUTE, priority 2021, published 2024) come the findings set out here.

Broadly, the EC50 is the concentration at which the effect is half-maximal. Usually IC50 stands for the concentration at which inhibition is half-maximal. Read a low IC50 as higher potency.

Series [1] has as its system YAP. Nature of the series: TEAD-LUC activation assay (293A-TEAD-LUC reporter). The series is classed as cell-based. The following applies: Homo sapiens.
Text: More specifically, we used a 293A cell line harboring a stably integrated cassette containing 8 copies of the TEAD binding element upstream of luciferase (8xGTII-LUC). These cells retain responsiveness to contact inhibition-induced decreases in YAP transcriptional output.^6 The TEAD-responsive reporter assay (called 293A-TEAD-LUC throughout) was adapted to 1536-well format and then used to screen a library of ˜738k compounds for YAP-inducing activity.
Additional compounds of the present disclosure were subjected to the assay described above.
Series [2] has as its system YAP-controlled transcripts (ANRKD1, CYR61, CTGF). Put plainly: YAP-controlled transcript levels in 293A and other human cell lines. Format: cell-based.
The test system of series [3] is YAP and TEAD proteins. Nature of the series: YAP-TEAD association and YAP nuclear localization in cells. The series is classed as cell-based.
Series [4] concerns primary mouse epidermal keratinocytes. Nature of the series: Colony formation of primary mouse epidermal keratinocytes on dermal feeder layer. The following applies: 10-day growth period on dermal feeder layer. The series is classed as cell-based. From the text:
We evaluated the proliferative response of primary cells and tissues to compound 13 treatment. […] In addition, compound 13 treatment allowed for the secondary re-plated expansion of Rhodamine B-stained keratinocytes and the time-dependent expression of YAP-driven transcript Cyr61 (FIGS. 2A-C).

Series [5] deals with epidermis of wildtype adult C57BL/6 mice. Put plainly: Topical application to dorsal skin of C57BL/6 mice (epidermal remodeling). The series is classed as in vivo, mouse. As to the method:
When applied topically to the dorsal skin of wildtype adult C57BL/6 mice over the course of ten days, compound 13 (10 uM) promoted a dramatic expansion of keratinocytes and K14-positive precursors as assessed by […] and anti-K14 histological staining at study end (FIG. 2D).
(§1) Compound 13 treatment, in an exemplary embodiment, promotes wound healing in human cells and induces a pro-proliferative effect on keratinocytes in the human skin surrogate species, the Yucatan mini pig. Accordingly, there was developed a gel-based formulation of compound 13, which allows for its stable room temperature storage and its topical delivery in high concentrations (up to about 1.5 weight percent).

The subject of series [6] is Yucatan mini-pig skin. Put plainly: Topical delivery in the Yucatan mini pig. Format: in vivo.
Text: as §1

The test system of series [7] is human skin equivalents. Nature of the series: Wound healing in human skin equivalents (3 mm full thickness wound). Format: cell-based.
Text: as §1

Series [8] in a line: Cytotoxicity in the TEAD-LUC activation assay. The following applies: human.
Series [9] is described as follows: in vitro. The settings on record: human.
The mark [10] stands for this setting: Table 4, read-out: TEAD-LUC activation assay EC50.

Molecules are shown by their SMILES. Read-outs that look alike come from different tables or passages of the source.

`O=C(NCCCc1nccs1)c1cc(-c2ccccc2)on1` [Compound 13, 5-phenyl-N-(3-(thiazol-2-yl)propyl)isoxazole-3-carboxamide]: the EC50 in series [1] (Table 3, read-out: TEAD-LUC activation assay EC50) is 1 µM; in [1] (absence of serum, high cell density, read-out: EC50 of luciferase activity induction in 293A-TEAD-LUC cells) it was 1.6 µM; in series [1] (presence of serum, high cell density, read-out: EC50 of luciferase activity induction in 293A-TEAD-LUC cells), 1.5 µM. Besides, in series [2] (293A cells and MCF-10A, HEK293T, H69, HaCaT), the “levels of YAP-controlled transcripts (ANRKD1, CYR61, CTGF)” value is given as “robustly increased”. In series [2] (293A cells and other human cell lines), the “levels of YAP itself (YAP1)” value is recorded as “did not augment”. Moreover, in series [3], the “association of YAP and TEAD proteins in cells” value is “dose-dependently promoted”. For the same compound, the “nuclear localization of YAP” value in [3] (in response to increased cell density) was “induced the nuclear localization of YAP”. Moreover, the colony forming potential in series [4] is ~10 fold. In series [5] (endpoint of the experiment), the “YAP-dependent transcripts Ctgf, Cyr61, and Ankrd1” value is “robust upregulation”. For the same compound, the “epidermal thickening, gel-based formulation versus drug in acetone or DMSO” value in series [5] (topical delivery, mouse) is “to a more significant degree”. For the same compound, the epidermal thickness result in [5] (topical, ten days, 10 uM, wildtype mice) is reported as “approximate doubling”. The KI-67 positive keratinocytes entry in [5] (topical, ten days, study end) is “substantially increased”. Moreover, the “epidermal hyperplasia, dermal hyperplasia, YAP-dependent gene expression” value in series [6] is “promoted epidermal hyperplasia, dermal hyperplasia, and YAP-dependent gene expression”. Also, the “keratinocyte hyperplasia and wound contraction” value in series [7] was “promoted the hyperplasia of keratinocytes and promoted wound contraction”. In addition, it took 13.7 µM to reach half-maximal inhibition in [8] (IC50).

For the compound `CN1[C@H]2CC[C@@H]1CN(C(=O)c1cc(-c3ccccc3)on1)CC2` [Compound 129], the EC50 in [1] (setting [10]) was > 20 µM. Further, in [9], the IC50 was > 20 µM.

Take `O=C(NC1CCCc2ccccc21)c1cc(-c2ccccc2)n[nH]1` (stereo not shown) [Compound 151]: the EC50 in series [1] (setting [10]) came to 10 µM. Also, in [8], the IC50 was > 20 µM.

In the case of `CCN1C(=O)CCc2cc(NC(=O)c3cccc(Br)c3)ccc21` [Compound 152], the EC50 in [1] (setting [10]) amounted to 10 µM. In addition, the IC50 in series [8] is > 20 µM.

As to `CC(=O)c1ccc(NC(=O)c2cc(-c3ccncc3)[nH]n2)cc1` [Compound 153], the EC50 in series [1] (setting [10]) was > 20 µM. The IC50 in series [8] is > 20 µM.

Regarding `N#Cc1cccc(NC(=O)c2cc(-c3ccncc3)[nH]n2)c1` [Compound 154], the EC50 in series [1] (setting [10]) was 2 µM. For the same compound, the IC50 in series [8] is > 20 µM.

With `CCc1cccc(NC(=O)C2CCN(C(=O)c3cc(-c4ccncc4)[nH]n3)CC2)c1` [Compound 155], the EC50 in [1] (setting [10]) stood at 5 µM. The half-inhibitory concentration (IC50) in series [8] is > 20 µM.

On to `Cc1ccc(N2CC(C(=O)NCc3n[nH]c4ccccc34)CC2=O)cc1` (stereo not shown) [Compound 156], for which the EC50 in series [1] (setting [10]) is 5 µM. Moreover, the half-inhibitory concentration (IC50) in [8] is > 20 µM.

Regarding `COc1ccc2cc(NC(=O)c3n[nH]c4c3CCCCC4)cnc2c1` [Compound 157], the EC50 in [1] (setting [10]) turned out to be 10 µM. In series [8], the IC50 is > 20 µM.
